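48-hour exposure; five concentrations; linearly interpolated endpoints. GI50: concentration for 50% inhibition of growth. TGI denotes the concentration required for complete inhibition of growth.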
system: MDA-MB-468 breast; experiment: NCI anticancer screen, dose series, 48 h

**Q.** How did the GI50 turn out when CN(C)CCC(=O)Nc1ccc(-n2cc(-c3cccc(NC(=S)Nc4cccc(-c5cn(-c6ccc(NC(=O)CCN(C)C)cc6)nn5)c4)c3)nn2)cc1 was run?
**A.** 4.74 µM

**Q.** And the TGI?
**A.** 22.7 µM

**Q.** Which results are given for C[C@@H]1C[C@@H]([C@H](O)CC2CC(=O)NC(=O)C2)C(=O)[C@@H](C)C1?
**A.** GI50: 0.25 µM; TGI: 4.05 µM

**Q.** For Cn1c(COC(=O)NCCc2ccccn2)nc2c(N3CCOCC3)nc(Cl)nc21, which GI50 is on record?
**A.** 1.56 µM

**Q.** And the TGI?
**A.** 3.77 µM

**Q.** COc1cc(/C=N/NC(=O)c2cnn3c2NC(c2ccccc2)C3)ccc1OC1CCCC1 (centres undefined) was tested. Which GI50 did it give?
**A.** 0.524 µM

**Q.** And the TGI?
**A.** 5.71 µM

**Q.** With CCCCCCCC(=O)OCC/C=C/C1OC1C1OC(=O)/C=C\C=C\C(=O)N(C(C)=O)C(=O)/C=C(/C)CCC2OC2C1OC(=O)NC(C)=O (centres undefined) as the molecule, how does the GI50 read?
**A.** 1.21 µM

**Q.** And the TGI?
**A.** 5.6 µM

**Q.** Which GI50 does the source give for CCOC(=O)Nc1ccc2nc(-c3cscn3)[nH]c2c1 here?
**A.** 2.44 µM

**Q.** What about the TGI of the same molecule?
**A.** > 100 µM

**Q.** What does the source list for COc1ccc(-c2ccc(OC)c(OC)c2OC)cc1?
**A.** GI50: 0.377 µM; TGI: 4.37 µM

**Q.** How did the GI50 turn out when O=C(Nc1n[nH]c2cc(-c3cc(F)ccc3F)ccc12)C1CC1 was run?
**A.** 6.06 µM

**Q.** And the TGI?
**A.** > 25 µM

**Q.** Which results are given for COc1cc(N2C(=O)[C@H](Cl)C2c2ccc(SC)cc2)cc(OC)c1OC (some centres undefined)?
**A.** GI50: 0.274 µM; TGI: > 100 µM

**Q.** How did the GI50 turn out when Cn1c(I)c(C#C[Si](C)(C)C)c(=O)n(C(=O)c2ccccc2)c1=O was run?
**A.** 1.19 µM

**Q.** What about the TGI of the same molecule?
**A.** 2.87 µM

**Q.** What does the source list for C[C@@]1(F)[C@H](O)[C@@H](CO)O[C@H]1n1ccc(=O)[nH]c1=O?
**A.** GI50: > 100 µM; TGI: > 100 µM

**Q.** Which GI50 does the source give for COc1ccc2c(c1)C(=O)c1c-2c(OCCCN(C)C)nc2cc(Br)ccc12 here?
**A.** 4.68 µM

**Q.** And the TGI?
**A.** 18 µM

**Q.** For OCc1ccc(N(Cc2ccc(F)cc2)Cc2ccc(F)cc2)cc1Cl, which GI50 is on record?
**A.** 0.341 µM

**Q.** And the TGI?
**A.** 1.7 µM

**Q.** Which results are given for O=c1[nH]c(C2CCCN2)nc2c1oc1ccc(Cl)cc12 (centres undefined)?
**A.** GI50: > 67.4 µM; TGI: > 100 µM

**Q.** For COc1ccc2[nH]c(C(=O)N3CCN(C(=O)OCc4ccc5c(Cl)cc(Cl)c(O)c5n4)CC3)cc2c1, which GI50 is on record?
**A.** 1.26 µM

**Q.** And the TGI?
**A.** 2.78 µM

**Q.** CC(C)(C)C[C@H]1N[C@@H](C(=O)NC2CCC(O)CC2)[C@H](c2cccc(Cl)c2F)[C@@]12C(=O)Nc1cc(Cl)ccc12 (some centres undefined) was tested. Which GI50 did it give?
**A.** 3.54 µM

**Q.** And the TGI?
**A.** 18.5 µM

**Q.** Which GI50 does the source give for CCN(CC)C(=S)SSC(C)C here?
**A.** 17.3 µM

**Q.** What about the TGI of the same molecule?
**A.** 45.8 µM

**Q.** For NC(N)=N/N=C\c1ccc(OCc2ccccc2)cc1, which GI50 is on record?
**A.** 1.23 µM

**Q.** And the TGI?
**A.** 2.64 µM

**Q.** Which GI50 does the source give for Cn1c(COC(=O)NCCn2ccnc2)nc2c(N3CCOCC3)nc(-c3ccccc3)nc21 here?
**A.** 0.36 µM

**Q.** What about the TGI of the same molecule?
**A.** 1.46 µM

**Q.** How did the GI50 turn out when COc1ccc(-n2c(=S)sc3c(Cl)nc(C)nc32)c(OC)c1 was run?
**A.** 1.98 µM

**Q.** And the TGI?
**A.** 6.57 µM

**Q.** What does the source list for Nc1cc2c3c(cccc3c1)C(=O)N(CCN1CCCC1)C2=O?
**A.** GI50: 4.48 µM; TGI: 21.1 µM

**Q.** Which GI50 does the source give for Cc1ccccc1NC(=O)Nc1nc2ccc([N+](=O)[O-])cc2s1 here?
**A.** 2.41 µM

**Q.** And the TGI?
**A.** 5.37 µM

**Q.** Which GI50 does the source give for O=C1NC(=NCCc2ccc(Cl)cc2)S/C1=C\c1ccc2ncccc2c1 here?
**A.** 7.5 µM

**Q.** And the TGI?
**A.** > 25 µM

**Q.** For O=C1C(=O)c2c(nc3ccc(C(F)(F)F)cn23)-c2ccccc21, which GI50 is on record?
**A.** 0.234 µM

**Q.** And the TGI?
**A.** 0.56 µM

**Q.** With CCCCNC(c1ccc(Cl)cc1)C(O)c1ccc(Cl)cc1 (centres undefined) as the molecule, how does the GI50 read?
**A.** 1.69 µM

**Q.** What about the TGI of the same molecule?
**A.** 3.3 µM

**Q.** How did the GI50 turn out when CC1=NN(c2cccc(Cl)c2)C(=O)/C1=C\c1cn(CC(O)CN2CCCCC2)c2ccccc12 (centres undefined) was run?
**A.** 10.4 µM

**Q.** What about the TGI of the same molecule?
**A.** 25.5 µM

**Q.** With O=C1C=CC(=O)c2c(O)c(N3CCN(CCO)CC3)c(Cl)c(O)c21 as the molecule, how does the GI50 read?
**A.** 0.286 µM

**Q.** What about the TGI of the same molecule?
**A.** 1 µM

**Q.** Which GI50 does the source give for C/C(=C(/c1ccc(O)cc1)c1ccc(OCCN(C)C)cc1)c1ccc(Cl)cc1 here?
**A.** 13.4 µM

**Q.** What about the TGI of the same molecule?
**A.** 31.9 µM

**Q.** With CCCCCCCC/C=C/CCCCCCCC1=NC(C)(C)CN1C(C)(C)CO as the molecule, how does the GI50 read?
**A.** 1.73 µM

**Q.** And the TGI?
**A.** 3.23 µM

**Q.** What does the source list for O=C(NCc1ncc[nH]1)c1ccc(-c2nc3ccc4[nH]ncc4c3c3c2CCCC3)cc1?
**A.** GI50: 0.64 µM; TGI: 1.85 µM

**Q.** What does the source list for C#C[C@]1(O)CC[C@H]2[C@@H]3CC=C4c5sc(Nc6ccc(Cl)cn6)nc5CC[C@]4(C)[C@H]3CC[C@@]21C?
**A.** GI50: 7.65 µM; TGI: > 100 µM

**Q.** Which GI50 does the source give for COC1=CC(c2ccc[nH]2)=N/C1=C\c1[nH]c(C)c(C(=O)CCCCCCCCC(=O)O[C@H]2CC[C@H]3C4CCc5cc(O)ccc5C4CC[C@]23C)c1C (some centres undefined) here?
**A.** 0.56 µM

**Q.** And the TGI?
**A.** > 50 µM

Source: PubChem BioAssay (NCI)
